According to US6355635B1, “Compounds for the treatment of obesity” (Pfizer Inc., priority 1999, dated 2002):

Test system: endogenous NPY response
Experiment: Endogenous NPY response in Bowes melanoma host cells
Details: 10 uM; human Bowes melanoma cells (HMCB), low levels of Y1 responses
Procedure: This plasmid construct is used along with calcium phosphates to stably transfect human Bowes melanoma cells (HMCB; obtained from ATCC, Rockville, Md.), a cell line in which several Gαi-linked receptors are expressed at reasonable levels and are coupled to functional responses. Cells are maintained at 37° C. and 5% CO2 in Eagle's minimum essential medium with 0.1 mM non-essential amino acids, 1.0 mM sodium pyruvate and 25 mM HEPES which is supplemented with 10% fetal bovine serum (pH 7.3).

## NC(N)=NCCC[C@@H](NC(=O)C(c1ccccc1)c1ccccc1)C(=O)NCc1ccc(O)cc1 [BIBP3226]
  block of the endogenous NPY response: completely blocks
